Key:
[1] = method code SF-RC, from Fauchere, J.; Pliska, V. (1983). Hydrophobic parameters of aminoacid side chains from the partitioning of N-acetylaminoacid amides. Eur J Med Chem, 18(4)369-375.; conditions: pH 7.1
[2] = method code SF-CR+AS, from Fauchere, J.; Pliska, V. (1983). Hydrophobic parameters of aminoacid side chains from the partitioning of N-acetylaminoacid amides. Eur J Med Chem, 18(4)369-375.; conditions: pH 7.1

SMILES	logD [1]	logD [2]
CC(=O)NC(CCC(N)=O)C(N)=O (configuration not stated)	-2.05	
CC(=O)N[C@@H](CO)C(N)=O	-1.87	
CC(=O)NC(=O)C(N)CSSCC(N)C(=O)NC(C)=O (configuration not stated)		-1.7
CC(=O)N[C@H](C(N)=O)C(C)C	-0.61	
CC(=O)N[C@@H](Cc1cnc[nH]1)C(N)=O	-1.7	
CCC(C)C(NC(C)=O)C(N)=O (configuration not stated)	-0.03	
CC(=O)NC(CC12CC3CC(CC(C3)C1)C2)C(N)=O (configuration not stated)	1.9	
CC(=O)N1CCC[C@H]1C(N)=O	-1.34	
CC(=O)NC(C(N)=O)C(C)O (configuration not stated)	-1.57	
CC(=O)N[C@H](CS)C(N)=O		-0.29
CC(=O)N[C@@H](CC(C)C)C(N)=O	-0.13	
CC(=O)N[C@@H](CC(N)=O)C(N)=O	-2.41	
